From ChEMBL document CHEMBL1125329, “4-Oxospiro[benzopyran-2,4'-piperidines] as class III antiarrhythmic agents. Pharmacological studies on 3,4-dihydro-1'-[2-(benzofurazan-5-yl)- ethyl]-6-methanesulfonamidospiro[(2H)-1-benzopyran-2,4'-piperidin]-4-on e (L-691,121)” (J Med Chem, 1992)

Key:
Mustela putorius furo = species on record: Mustela putorius furo; test: Compound was evaluated for the molar concentration required to prolong effective refractory period (ERP) 25% above baseline in ferret isolated right ventricular papillary muscles using a paired pacing protocol; type: functional, Muscle tissue
Canis familiaris = test: Compound was evaluated for the intravenous dose required to prolong relative refractory period (RRP) 20 ms above baseline in chloralose anesthetized dogs using a paired pacing protocol; type: functional; conditions: Canis lupus familiaris
[1] = biological target: T1, Alpha-1A adrenergic receptor (Bos taurus, UniProt P18130); test: Compound was evaluated for binding affinity at bovine brain Alpha-1 adrenergic receptor in a filtration-based assay using [3H]prazosin as the radioligand
T1 sequence (P18130 whole entry): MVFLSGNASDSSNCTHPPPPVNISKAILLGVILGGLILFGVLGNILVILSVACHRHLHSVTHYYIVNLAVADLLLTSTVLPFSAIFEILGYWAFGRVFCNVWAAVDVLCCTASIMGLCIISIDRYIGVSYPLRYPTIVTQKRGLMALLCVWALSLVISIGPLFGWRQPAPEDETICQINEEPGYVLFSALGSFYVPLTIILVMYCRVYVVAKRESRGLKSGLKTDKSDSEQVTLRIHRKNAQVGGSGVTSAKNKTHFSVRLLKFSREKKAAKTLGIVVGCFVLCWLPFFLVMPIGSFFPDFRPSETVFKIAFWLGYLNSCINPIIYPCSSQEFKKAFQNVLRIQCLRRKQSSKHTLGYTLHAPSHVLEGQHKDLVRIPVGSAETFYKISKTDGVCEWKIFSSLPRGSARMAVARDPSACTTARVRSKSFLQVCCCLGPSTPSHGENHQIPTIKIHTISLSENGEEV

[2] = biological target: T1, Alpha-1A adrenergic receptor; test: Compound was evaluated for binding affinity at bovine brain Alpha-1 adrenergic receptor determined in a filtration-based assay using [3H]prazosin as the radioligand.

Row | Structure (SMILES) | IC50 [1] | IC50 [2] | EC25 (Mustela putorius furo) | ED20 (Canis familiaris)
1 | CS(=O)(=O)Nc1cccc2c1OC1(CCN(CCc3ccccn3)CC1)CC2=O.Cl.O |  |  | 7400 nM | 
2 | Cl.O=C1CC2(CCN(CCc3ccccn3)CC2)Oc2ccccc21 |  |  | 160 nM | 500 µg/kg
3 | CS(=O)(=O)Nc1ccc2c(c1)C(=O)CC1(CCN(CCc3ccc4nonc4c3)CC1)O2.Cl |  |  | 13 nM | 2.8 µg/kg
4 | CS(=O)(=O)Nc1ccc2c(c1)OC1(CCN(CCc3ccccn3)CC1)CC2=O.Cl.O |  |  | 6600 nM | 
5 | Cc1cccc(CCN2CCC(C(=O)c3ccc(NS(C)(=O)=O)cc3)CC2)n1 |  |  | 58 nM | 17.4 µg/kg
6 | CN(CCOc1ccc(NS(C)(=O)=O)cc1)CCc1ccc(NS(C)(=O)=O)cc1 [DOFETILIDE] |  |  | 18 nM | 5.2 µg/kg

Second part, led by results:

Row | IC50 [1] | IC50 [2] | Structure (SMILES) | EC25 (Mustela putorius furo) | ED20 (Canis familiaris)
7 | 15000 nM |  | CS(=O)(=O)Nc1ccc(CCN2CCC3(CC2)CC(=O)c2cc(NS(C)(=O)=O)ccc2O3)cc1.Cl | 74 nM | 3 µg/kg
8 | 1000 nM |  | CS(=O)(=O)Nc1ccc2c(c1)C(=O)CC1(CCN(CCc3ccc(C#N)cc3)CC1)O2.Cl | 3 nM | 7 µg/kg
9 | 100 nM |  | CS(=O)(=O)Nc1ccc2c(c1)C(=O)CC1(CCN(CCc3ccccc3)CC1)O2.Cl | 7 nM | 5 µg/kg
10 | 3000 nM |  | CS(=O)(=O)Nc1ccc2c(c1)CCC1(CCN(CCc3ccc4nonc4c3)CC1)O2.Cl | 54 nM | 
11 | 2300 nM |  | CS(=O)(=O)Nc1ccc2c(c1)C(O)CC1(CCN(CCc3ccc4nonc4c3)CC1)O2.Cl (centres undefined) | 900 nM | 200 µg/kg
12 |  | 900 nM | CS(=O)(=O)Nc1ccc2c(c1)C(=O)CC1(CCN(CCc3ccc([N+](=O)[O-])cc3)CC1)O2.Cl | 5 nM | 
13 | 500 nM |  | CS(=O)(=O)Nc1ccc2c(c1)C(=O)CC1(CCN(CCc3ccccn3)CC1)O2.Cl.O | 33 nM | 10 µg/kg
